Source: patent publication US7094909B2, “HIV protease inhibitors, compositions containing the same, their pharmaceutical uses and materials for their synthesis” (priority 2001, dated 2006)
Like-named read-outs stand apart in the source and are kept apart here.

Tests used:
[1] = molecular target: T1, HIV-1 protease (Q7S mutant form) (Human immunodeficiency virus type 1 group M subtype B, UniProt P04585, Q495S); assay: HIV-1 Protease RET assay; assay type: biochemical; details: Ave. Ki (nM), RET assay, Q7S enzyme, Morrison tight binding fit
T1 construct: made in house
How it was run: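 Q7S HIV-1 protease, refolded from urea, 2 nM active dimer with 5 μM EDANS/DABCYL peptide cleaved at Tyr-Pro; fluorescence 340/490 nm. 12 min at 37 °C in 0.1M sodium acetate pH 4.8, 1M NaCl, 10% DMSO. Ki from Morrison tight-binding fit.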

[2] = system: HIV-1 (HIV-1 RF, HIV-1 NL4-3) in CEM-SS / MT-2 cells; assay: Cytopathic effect (CPE) inhibition assay (XTT/MTT dye reduction); assay type: cell-based
How it was run: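 CEM-SS or MT-2 cells were infected with HIV-1 RF or NL4-3 (moi 0.025–0.819) and plated at 2×10^4 cells/well with half-log compound dilutions for 6 days. Viability was read by XTT formazan at 450 nm after 4 h. EC50 restores formazan to 50% of uninfected untreated cells, CC50 halves it in uninfected cells, and TI = CC50/EC50.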

461, 84V, 90M virus = assay: Phenotypic susceptibility assay at Virologic, Inc.; assay type: cell-based, HIV-1; details: Human immunodeficiency virus 1, read-out: EC50 or IC50 (mM), values with asterisk (IC50)
Experimental: Compounds were tested in phenotypic susceptibility assays at Virologic, Inc., (See Petropoulos C. J., Parkin N. T., Limoli K. L., Lie Y. S., Wrin T., Huang W., Tian H., Smith D., Winslow G. A., Capon D J, Whitcomb J M. 2000, “A novel phenotypic drug susceptibility assay for human immunodeficiency virus type 1,” Antimicrob Agents Chemother 44(4):920–928) or using the assay described here. MT-2 cells were infected with either HIV-1 NL4-3 or HIV-1 NL4-3([…]) and incubated in the presence of serial 0.5 log dilutions of test compounds. Three days later, culture supernatants were collected and virus production, as determined by p24 ELISA, was assayed. Percent inhibition was calculated as p24 concentration in compound-treated samples as compared to infected, compound-free controls. Inhibition of viral replication is determined by measuring reduction in HIV p24 present in the culture supernatant, using a Beckman-Coulter p24HIV-1 Ag EIA kit and following the supplied protocol. Absorbance is read on a MRX microplate reader (Dynex Technologies). The EC50 was calculated as the concentration of compound that effected a decrease in the p24 production by infected, compound-treated cells to 50% of that produced by infected, compound-free cells.

[3] = Human immunodeficiency virus 1, NL43, read-out: Ave CPE EC50

SMILES	Ki [1] [nM]	EC50 [2, 3] [nM]	melting point [°C]	EC50 ([2]; Human immunodeficiency virus 1, NL43, read-out: Ave CPE EC50 (mM)) [nM]	IC50 (461, 84V, 90M virus) [mM]
Cc1c(O)cccc1C(=O)N[C@@H](Cc1ccccc1)[C@H](O)C(=O)N1CSC(C)(C)[C@H]1C(=O)N[C@H]1C=CCCC1 [Example A38, (R)-3-((2S,3S)-2-Hydroxy-3-{[1-(3-hydroxy-2-methyl-phenyl)-methanoyl]-amino}-4-phenyl-butanoyl)-5,5-dimethyl-thiazolidine-4-carboxylic acid (R)-cyclohex-2-enylamide]	< 0.1	38	193 to 195		
Cc1c(O)cccc1C(=O)N[C@@H](Cc1ccccc1)[C@H](O)C(=O)N1CSC(C)(C)[C@H]1C(=O)N[C@@H]1CCc2ccccc21 [Example A29, (R)-3-((2S,3S)-2-Hydroxy-3-{[1-(3-hydroxy-2-methyl-phenyl)-methanoyl]-amino}-4-phenyl-butanoyl)-5,5-dimethyl-thiazolidine4-carboxylic acid (R)-indan-1-ylamide]	0.31	118	128 to 130		
Cc1c(O)cccc1C(=O)N[C@@H](Cc1ccccc1)[C@H](O)C(=O)N1CSC(C)(C)[C@H]1C(=O)N[C@@H]1CCCc2ccccc21 [Example A4, 3-[2-Hydroxy-3-(3-hydroxy-2-methyl-benzoylamino)-4-phenyl-butyryl]-5,5-dimethyl-thiazolidine-4-carboxylic acid (1,2,3,4-tetrahydro-naphthalen-1-yl)-amide]	2.2	270	123 to 125		
COc1cccc(CNC(=O)[C@H]2N(C(=O)[C@@H](O)C(Cc3ccccc3)NC(=O)c3cccc(O)c3C)CSC2(C)C)c1 (single isomer, unassigned)			108 to 110		
Cc1c(O)cccc1C(=O)N[C@@H](Cc1ccccc1)[C@H](O)C(=O)N1CSC(C)(C)[C@H]1C(=O)NC[C@H]1CCCO1 [Example A12, (R)-3-((2S,3S)-2-Hydroxy-3-{[1-(3-hydroxy-2-methyl-phenyl)-methanoyl]-amino}-4-phenyl-butanoyl)-5,5-dimethyl-thiazolidine-4-carboxylic acid [(R)-1-(tetrahydro-furan-2-yl)methyl]-amide]	5.5	127	105 to 107		
Cc1c(O)cccc1C(=O)N[C@@H](Cc1ccccc1)[C@H](O)C(=O)N1CSC(C)(C)[C@H]1C(=O)N[C@@H]1CCSc2ccccc21 [Example A18, (R)-3-((2S,3S)-2-Hydroxy-3-{[1-(3-hydroxy-2-methyl-phenyl)-methanoyl]-amino}-4-phenyl-butanoyl)-5,5-dimethyl-thiazolidine-4-carboxylic acid (R)-thiochroman-4-ylamide]	0.3	27	125 to 127		
Cc1c(O)cccc1C(=O)N[C@@H](Cc1ccccc1)[C@H](O)C(=O)N1CSC(C)(C)[C@H]1C(=O)NCc1ccc2c(c1)OCO2 [Example A14, 3-((2S,3S)-2-Hydroxy-3-{[1-(3-hydroxy-2-methyl-phenyl)-methanoyl]-amino}-4-phenyl-butanoyl)-5,5-dimethyl-thiazolidine-4-carboxylic acid (benzo[1,3]dioxol-5-ylmethyl)-amide]	0.32			61	0.000226
Cc1c(O)cccc1C(=O)N[C@@H](Cc1ccccc1)[C@H](O)C(=O)N1CSC(C)(C)[C@H]1C(=O)NCC1CC1 [Example A20, (R)-3-((2S,3S)-2-Hydroxy-3-{[1-(3-hydroxy-2-methyl-phenyl)-methanoyl]-amino}-4-phenyl-butanoyl)-5,5-dimethyl-thiazolidine-4-carboxylic acid cyclopropylmethyl-amide]	0.16	35			0.000219
Cc1c(O)cccc1C(=O)N[C@@H](Cc1ccccc1)[C@H](O)C(=O)N1CSC(C)(C)[C@H]1C(=O)NC1CCCCC1 [Example A21, (R)-3-((2S,3S)-2-Hydroxy-3-{[1-(3-hydroxy-2-methyl-phenyl)-methanoyl]-amino)-4-phenyl-butanoyl)-5,5-dimethyl-thiazolidine-4-carboxylic acid cyclohexylamide]	< 0.1	49			0.000655
